PubChem BioAssay (NCI)
Values joined by “and” are separate entries in the source; they are usually repeats but may differ in a detail not shown here. Equal entries are not always repeated.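 Where inhibition never reached the appropriate level, the endpoint shown equals the highest concentration tested. Otherwise, values were interpolated linearly from a five-concentration, 48-hour dose response in 96-well plates. GI50 = concentration required for 50% inhibition of growth. TGI: total growth inhibition.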

How the values were obtained:
Test in all cases: NCI-60 cell line screen, 48 h
[1] = tested on: OVCAR-8 ovarian
[2] = tested on: HL-60(TB) leukemia
[3] = tested on: SK-OV-3 ovarian
[4] = tested on: SK-MEL-28 melanoma
[5] = tested on: M14 melanoma
[6] = tested on: U251 CNS
[7] = tested on: SF-268 CNS
[8] = tested on: DU-145 prostate
[9] = tested on: NCI-H226 lung
[10] = tested on: KM12 colon

Structure (SMILES) | TGI [1] | TGI [2] | TGI [3] | TGI [4] | TGI [5] | TGI [6] | TGI [7] | TGI [8] | TGI [9] | TGI [10] | GI50 [2] | GI50 [9] [nM] | GI50 [1] | GI50 [10] [nM] | GI50 [4] [µM] | GI50 [5] | GI50 [6]
COCOc1ccc(C(=O)C(C)c2ccc(OCOC)cc2OCOC)c(O)c1 (stereo not given) | > 100 µM | > 100 µM | > 100 µM | > 100 µM | > 100 µM | > 100 µM | > 100 µM | > 100 µM |  |  |  |  |  |  |  |  | 
C=CCC1(O)c2ccccc2C(=O)c2c(O)ccc(O)c21 (stereo not given) | 53.7 µM | 13 µM | 40.7 µM | > 100 µM | 27.5 µM | 24.3 µM | 56.9 µM | 38 µM | > 43 µM | 30.1 µM |  |  |  |  |  |  | 
C=C(C)[C@@]1(O)O[C@H]2C[C@@]3(C)OC(=CC3=O)/C(C)=C\[C@@H]3OC(=O)[C@@]1(C)[C@H]32 | > 100 µM | > 47.2 µM | > 100 µM | 30.4 µM | 37.5 µM | 33.6 µM | 88.2 µM | > 100 µM | 69.8 µM | 32.5 µM |  |  |  |  |  |  | 
CN(C)CCNc1ccc(C(=O)NCCCN(C)CCCNC(=O)c2ccc(NCCN(C)C)c3c(=O)c4ccccc4[nH]c23)c2[nH]c3ccccc3c(=O)c12 | 2.39 µM | 2.74 µM | 1.3 µM | 0.604 µM | 1.53 µM | 0.589 µM | 0.544 µM | 2.48 µM | 0.148 µM | 0.906 µM |  |  |  |  |  |  | 
C/C=C/[C@@]1(OC(=O)c2ccccc2)C[C@@H]2CCCC[C@@H]21 | 34.7 µM | 30.9 µM | 32.6 µM | 32.9 µM | 32.3 µM | 29.8 µM | 32.4 µM | 31.4 µM | 30.9 µM | 32.9 µM |  |  |  |  |  |  | 
CC1(C)O[C@H]2Cn3c(c(C#N)c4ccccc43)[C@H]2O1 |  | > 100 µM | > 100 µM | > 100 µM | > 100 µM | > 100 µM | > 100 µM | > 100 µM |  | > 100 µM |  |  |  |  |  |  | 
CN(C)c1nc2sc3c(c2c(=O)o1)CCCC3 | > 100 µM | > 100 µM | > 100 µM | > 100 µM | > 100 µM | > 100 µM |  | > 100 µM | 81 µM | > 100 µM |  |  |  |  |  |  | 
O=C(CP(c1ccccc1)c1ccccc1)c1cccc(C(=O)CP(c2ccccc2)c2ccccc2)c1 | > 100 µM | 42.8 µM | > 100 µM | > 100 µM | > 100 µM | > 100 µM | > 100 µM | > 100 µM | > 100 µM | > 100 µM |  |  |  |  |  |  | 
CCOC(=O)c1cccc(NC(=O)CCl)c1 | > 30.1 µM | 13.2 µM | 15.3 µM | 49.7 µM | 24.9 µM | 2.95 µM | 5.69 µM | 22.7 µM | 26 µM | 21.4 µM |  |  |  |  |  |  | 
O=C1c2ccccc2C2CNC1(O)c1ccccc12 (stereo not given) | > 100 µM | > 100 µM | > 100 µM | > 100 µM | > 100 µM | > 100 µM | > 100 µM | > 100 µM | > 100 µM | > 100 µM |  |  |  |  |  |  | 
COc1c2cc([N+](=O)[O-])cc1CNC(=O)CN1CCOCCOCCN(CCOCCOCC1)CC(=O)NC2 | > 100 µM | > 100 µM | > 100 µM | > 100 µM | > 100 µM | > 100 µM | > 100 µM | > 100 µM | > 100 µM | > 100 µM |  |  |  |  |  |  | 
Clc1ccc2c(SCC3CO3)c3ccccc3nc2c1 (stereo not given) | > 100 µM | 2.59 µM | 53.4 µM | 21.1 µM | 3.34 µM |  | > 100 µM | 2.95 µM | > 100 µM |  |  |  |  |  |  |  | 
Cc1ccc(C)n1-c1ccccc1C1SCCCS1 | > 100 µM | > 100 µM | > 100 µM | > 100 µM | > 100 µM | > 100 µM | > 100 µM | > 100 µM | > 100 µM | > 100 µM |  |  |  |  |  |  | 
COc1cc(/C=C/C(=O)OCC23CC[C@@]4(C(=O)O)CCC(C)[C@H](C)C4C2=CCC2[C@@]4(C)CC[C@H](O)C(C)(C)C4CC[C@]23C)ccc1O (stereo not given in full) | 35.7 µM | 51.1 µM | 83.4 µM | 85.9 µM | 49.5 µM | 76.1 µM | 33.3 µM | 23.2 µM | 71.8 µM | > 100 µM |  |  |  |  |  |  | 
CCCC(=O)O | > 18700 µM | > 18700 µM | > 18700 µM | > 18700 µM | > 18700 µM | > 18700 µM | > 18700 µM | 13200 µM | > 18700 µM | > 18700 µM | 1120 µM |  |  |  |  |  | 
O=C(Cc1ccccc1)NCCc1ccc(O)c(O)c1 | > 100 µM | 51.9 µM | > 100 µM | > 100 µM | > 100 µM | > 100 µM | > 100 µM | > 100 µM | > 100 µM | > 100 µM |  |  |  |  |  |  | 
c1ccc(CNC2CC(NCc3ccccn3)CC(NCc3ccccn3)C2)nc1 (stereo not given) | 8.59 µM and 25 µM and 9.53 µM | 10.5 µM and 10.2 µM | 7.86 µM and 8.7 µM and 7.17 µM | 18.5 µM and 13.3 µM and 26.4 µM | 10.3 µM and 8.32 µM and 5.31 µM | 3.88 µM and 9.35 µM and 3.36 µM | 15.7 µM and 13.3 µM and 16.3 µM | 8.52 µM and 17.1 µM | 6.07 µM and 7.07 µM and 5.39 µM | 3.8 µM and 6 µM and 4.07 µM | 2.78 µM and 1.23 µM | 2770 | 2.88 µM and 7.94 µM and 3.62 µM | 2050 | 7.71 | 3150 nM and 1390 nM and 2350 nM | 1950 nM and 4900 nM and 1880 nM
CN1C/C(=C\c2cccs2)C2=NC(=S)NC(c3cccs3)C2C1 (stereo not given) | > 100 µM | 19.1 µM | > 100 µM | > 100 µM | > 100 µM | > 100 µM | > 100 µM | > 100 µM | > 100 µM | > 100 µM |  |  |  |  |  |  | 
O=C(O)[C@H]1[C@@H](C2CCCCC2)O[C@@H](C2CCCCC2)O[C@H]1C(F)(F)F | 45.5 µM | 62.6 µM | > 100 µM | 41.4 µM | 39.4 µM | 34.2 µM | 44.2 µM | > 100 µM | 41.6 µM | 46.4 µM |  |  |  |  |  |  | 
COc1ccc2oc(=N)c(C(=O)Nc3cccc4ccccc34)cc2c1 |  | > 100 µM | 92.7 µM | > 100 µM | > 100 µM | 50.2 µM | > 100 µM | > 100 µM | > 100 µM | > 100 µM |  |  |  |  |  |  | 
